The subject of data set [1] is Staphylococcus aureus. Kind of data set: Bactericidal activity against Staphylococcus aureus RN4220 up to 18 hrs by broth microdilution assay. It counts as functional. The note with it: RN4220, 18 h, read-out: MBC99.9. A general note: In broth dilution the organism is exposed to a series of concentrations in liquid medium.
Data set [2] relates to Staphylococcus aureus. Kind of data set: Bactericidal activity against methicillin-resistant Staphylococcus aureus USA300 assessed as time required to reduce bacterial load to 0 at 4 times MIC by time-kill assay. Format: functional.
The subject of data set [3] is Staphylococcus aureus. Briefly: Antibacterial activity against vancomycin-resistant Staphylococcus aureus VRS12 up to 20 hrs by broth microdilution assay. The note with it: VRS12, 20 h. Format: functional.
For data set [4], the system named is Staphylococcus aureus. Kind of data set: Bactericidal activity against vancomycin-resistant Staphylococcus aureus VRS11a up to 18 hrs by broth microdilution assay. It counts as functional. The note with it: read-out: MBC99.9.
Data set [5] has as its system Staphylococcus aureus. Kind of data set: Antibacterial activity against methicillin-resistant Staphylococcus aureus 2658 RCMB up to 20 hrs by broth microdilution assay. Format: functional.
Data set [6] deals with Staphylococcus aureus. Kind of data set: Antibacterial activity against vancomycin-resistant Staphylococcus aureus VRS10 up to 20 hrs by broth microdilution assay. Format: functional. The note with it: VRS10, 20 h.
Data set [7] concerns Staphylococcus aureus. Kind of data set: Bactericidal activity against methicillin-resistant Staphylococcus aureus NRS119 up to 18 hrs by broth microdilution assay. The note with it: NRS119, 18 h, read-out: MBC99.9. It counts as functional.
The test system of data set [8] is Staphylococcus aureus. Briefly: Bactericidal activity against vancomycin-resistant Staphylococcus aureus VRS12 up to 18 hrs by broth microdilution assay. Format: functional. The note with it: VRS12, 18 h, read-out: MBC99.9.
For data set [9], the system named is Enterococcus faecium. Kind of data set: Antibacterial activity against vancomycin-resistant Enterococcus faecium ATCC 700221 up to 20 hrs by broth microdilution assay. The note with it: ATCC 700221, 20 h. It counts as functional.
Data set [10] relates to Staphylococcus aureus. Kind of data set: Bactericidal activity against vancomycin-resistant Staphylococcus aureus VRS10 up to 18 hrs by broth microdilution assay. Format: functional. The note with it: VRS10, 18 h, read-out: MBC99.9.
The test system of data set [11] is Staphylococcus aureus. Kind of data set: Bactericidal activity against methicillin-resistant Staphylococcus aureus USA400 NRS123 up to 18 hrs by broth microdilution assay. It counts as functional. The note with it: USA400 NRS123, 18 h, read-out: MBC99.9.
In data set [12] the test system is Staphylococcus aureus. Kind of data set: Antibacterial activity against vancomycin-resistant Staphylococcus aureus VRS11a up to 20 hrs by broth microdilution assay. Format: functional.
The nature of data set [13]: Aqueous solubility of the compound in PBS after 2 hrs by turbidimetric method. It counts as physicochemical.
Data set [14] can be described thus: Apparent permeability of the compound across basolateral side to apical side in human Caco2 cells by LC-MS/MS analysis. Format: ADME, cell-based. The note with it: Caco-2.
A short description of data set [15]: Efflux ratio of permeability from basolateral to apical side over apical to basolateral side of human Caco2 cells by LC-MS/MS analysis. It counts as ADME, cell-based. The note with it: Caco-2. (Caco-2 cells form a polarised layer with tight junctions and transporters.)
Data set [16] is described as follows: Intrinsic clearance in human liver microsomes in absence of NADPH by LC-MS/MS analysis. It counts as ADME, microsome. The note with it: read-out: CLH. On the technique in general: Liver microsomes are vesicles of endoplasmic reticulum, rich in cytochrome P450 enzymes.
Data set [17] in a line: Half life in human liver microsomes in absence of NADPH by LC-MS/MS analysis. It counts as ADME, microsome.
Data set [18] relates to Staphylococcus aureus. Kind of data set: Potentiation of vancomycin-induced antibacterial activity against vancomycin-resistant Staphylococcus aureus VRS10 assessed as reduction in vancomycin MIC after 20 hrs by checkerboard assay. It counts as functional.
For data set [19], the system named is Staphylococcus aureus. Briefly: Synergistic antibacterial activity against vancomycin-resistant Staphylococcus aureus VRS10 after 20 hrs in presence of vancomycin by checkerboard assay. It counts as functional. The note with it: VRS10, 20 h.
The subject of data set [20] is Staphylococcus aureus. Briefly: Potentiation of vancomycin-induced antibacterial activity against vancomycin-resistant Staphylococcus aureus VRS10 assessed as vancomycin MIC at 0.5 times MIC after 20 to 22 hrs (reference value: […] ug/mL). Format: functional.
Data set [21] relates to Staphylococcus aureus. Kind of data set: Potentiation of vancomycin-induced antibacterial activity against vancomycin-resistant Staphylococcus aureus VRS10 assessed as vancomycin MIC after 20 hrs by checkerboard assay. The note with it: VRS10, 20 h. It counts as functional.
Data set [22] concerns HRT-18 cell line. Briefly: Cytotoxicity against human HRT18 cells up to 128 microg/ml after 6 hrs by MTS assay. Format: cell-based. The note with it: hrt-18, 6 h.

In brackets after ≈: the same amount, converted by molar mass.

The MIC is the least concentration at which growth counts as inhibited. For the compound `CN[C@H](CC(C)C)C(=O)N[C@H]1C(=O)N[C@@H](CC(N)=O)C(=O)N[C@H]2C(=O)N[C@H]3C(=O)N[C@H](C(=O)N[C@H](C(=O)O)c4cc(O)cc(O)c4-c4cc3ccc4O)[C@H](O)c3ccc(c(Cl)c3)Oc3cc2cc(c3O[C@@H]2O[C@H](CO)[C@@H](O)[C@H](O)[C@H]2O[C@H]2C[C@](C)(N)[C@H](O)[C@H](C)O2)Oc2ccc(cc2Cl)[C@H]1O` [VANCOMYCIN], the MBC was 1 µg/mL (≈ 0.69 µM) in data set [1]; greater than 512 µg/mL in data set [4]; 1 µg/mL (≈ 0.69 µM) in data set [7]; 256 µg/mL (≈ 177 µM) in [8]; 512 µg/mL (≈ 353 µM) in data set [10]; 1 µg/mL (≈ 0.69 µM) in data set [11]. In addition, the Time in [2] turned out to be 24 h. Besides, the MIC was 16 µg/mL (≈ 11 µM) in [3]; 1.56 µg/mL (≈ 1.08 µM) in data set [5]; 128 to 512 µg/mL (≈ 88.3 to 353 µM) in [6]; greater than 64 µg/mL in data set [9]; greater than 512 µg/mL in data set [12].

The solubility (kinetic) is the concentration staying in solution when a stock, usually in DMSO, is diluted into the medium. The compound `Cc1nc(-c2ccc(-c3ccccc3)cc2)sc1-c1ccnc(NC(=N)N)n1` displayed an MIC in data set [5] of 1.56 µg/mL (≈ 4.04 µM). In [13], the solubility (kinetic) at 2 h stood at 2.2 µM (≈ 0.85 µg/mL).

One may read the Papp B→A as the apparent permeability from the basolateral to the apical side of a cell layer. A word on the efflux ratio: it is a quotient of directional permeabilities that is used to spot active efflux. By half-life is commonly meant the time in which the quantity being followed falls by half. Low readings indicate fast loss, high ones slow loss. In the case of `CCCCc1ccc(-c2nc(C)c(/C(C)=N/NC(=N)N)s2)cc1`, in [14], the Papp B→A is 1.2 ×10⁻⁶ cm/s. In addition, the efflux ratio in [15] was greater than 2. The microsomal CLint in data set [16] was less than 9.6 µL/min/mg. Moreover, the MIC in [5] fell in the range of 4.7 to 4.8 µg/mL (≈ 14.3 to 14.6 µM). For the same compound, in data set [17], the half-life was greater than 4 h.

With `Cc1nc(-c2ccc(-c3ccccc3)cc2)sc1-c1ccnc(N2CCN(C)CC2)n1`, the “fractional inhibitory concentration index (FICI)” value in [18] is listed as 0.03 - 0.53. For the same compound, the MIC was 1 µg/mL in data set [19]; 6.25 µg/mL (≈ 14.6 µM) in data set [5]; 1 µg/mL in data set [20]; 32 µg/mL (≈ 74.8 µM) in data set [6]; 0.5 to 64 µg/mL in data set [21]. The Activity entry in data set [22] is “Non-Toxic”.

Source of the values: ChEMBL document CHEMBL4184141, “Investigating the Antibacterial Activity of Biphenylthiazoles against Methicillin- and Vancomycin-Resistant Staphylococcus aureus (MRSA and VRSA)” (J Med Chem, 2017).
